The text below walks through data of PMC4537286, “Permeation of Therapeutic Drugs in Different Formulations across the Airway Epithelium In Vitro” (PLoS ONE, 2015).

Structures can show the parent of a compound that is named as a salt. Where two headings read alike, the source gives them in different places.

A short description of series [1]: Size of particles delivered by DP-4 Dry Powder Insufflator, bright-field microscopy. The series is classed as physicochemical. As to conditions: roughly spherical particles. Here is the method: Particles that were delivered by the DP-4 Dry Powder Insufflator were analyzed by bright-field microscopy. […] Sizes were measured using Cell^D Imaging software (Olympus).

Series [2] can be described thus: Transport studies across Calu-3 monolayers, compounds applied in solution (SLE, ALE), Papp. As to conditions: human; for Papp at 120 min, 10 μg/ml: pH 7.4, Papp values for fluorescein, n = 12.
The subject of series [3] is Calu-3 cells. The description is as above.
The test system of series [4] is Calu-3 cells. The series can be described thus: Transport of aerosolized compounds across Calu-3 monolayers (AID_M MicroSprayer, AID_D DP-4 insufflator). As to conditions: for Dye transport relative to SLE: application with DP-4 Dry Powder Insufflator (AID_D); for Dye transport relative to SLE incubation: application with MicroSprayer IA-1C Aerosolizer (AID_M).
Method: (§1) 0.5 x 10^6 Calu-3 cells (passage 32–38) were seeded per membrane and different exposure systems were used (Fig A in S1 File). To discriminate between the different exposures, the following terminology is used. Cultures with cells supplied with medium only from the basolateral side are termed air-liquid interface culture. In submersed liquid exposure (SLE) cells are cultured in submersion and exposed with compound dissolved in buffer. In the air liquid exposure (ALE) cells are cultured at an air-liquid interface and the compound dissolved in buffer is applied to the cells. For air-liquid interface deposition (AID) cells are cultured at an air-liquid interface and exposed to the compound applied as liquid aerosols by MicroSprayer IA-1C Aerosolizer (AID_M) or as powder aerosols by DP-4 Dry Powder Insufflator (AID_D). For comparison of the different exposure systems Calu-3 cells cultured for 11 days on 3 μm 12-well insert (Greiner Bio-One) were used.
(§2) For SLE and ALE exposures the apical compartment was filled with 500 μL and the basolateral compartment with 1500 μL. […] For AID studies the basal compartment was filled with 700 μl, and 200 μl of drug dissolved in Krebs-Ringer buffer were sprayed on each Transwell insert using the MicroSprayer IA-1C Aerosolizer (AID_M exposure). […] 100 μl samples from the basolateral compartment were taken at 0–30–60–90–120 min and replaced with pre-warmed Krebs-Ringer buffer. […] At the end of the SLE and ALE studies the content of the basolateral compartment and 10 μl of the apical compartment were collected. […] The total volume of this solution was determined and this value minus the added 100 μl used for calculations of drug concentrations. The entire content of the basolateral compartment and 10 μl of the apical compartment were collected.
(§3) The MicroSprayer IA-1C Aerosolizer (PennCentury Inc., Wyndmoor, PA) was used to mimic nebulization of the compounds. The device consists of a thin, flexible, stainless steel tube measuring 0.64 mm in diameter and 50.8 cm in length attached to the light, hand-operated, high-pressure syringe FMJ-250. A unique patented atomizer at the very tip of the tube generates the aerosol with a mass median diameter of 16–22 μm (http://www.penncentury.com/products/IA_1C.php). The device was fixed at a distance of 11 cm between tip of the MicroSprayer and the rim of the exposure plate. Inserts were transferred to a separate (exposure) plate to avoid contamination of the adjacent inserts and 200 μl of the aerosol were applied per well (Fig B, a in S1 File). After the treatment the insert was replaced into the original plate for transport studies. The device was cleaned with 70% ethanol and aqua dest. at the end of the experiments and dried at 60°C overnight.
(§4) Damage of monolayer integrity was interpreted as difference between TEER values before and after the experiments > 100 Ω*cm^2.
Series [5] relates to Calu-3 cells. Conditions: cited from earlier work; for Papp values of rhodamine 123 reported: ref [68],[70].
Series [6] concerns Calu-3 cells. As to conditions: human, pH 7.4.
Series [7] relates to Calu-3 cells.
Method: as §1, §2, §3, §4
A further series in a line: in vitro. As to conditions: human, pH 7.4, Papp.
[8] abbreviates: pH 7.4, Papp, SLE (submersed culture, compound in buffer), n = 4.
The mark [9] stands for this setting: pH 7.4, Papp, ALE (air-liquid interface culture, compound in buffer), n = 4.

With `CCCC1O[C@@H]2C[C@H]3[C@@H]4CCC5=CC(=O)C=C[C@]5(C)[C@H]4[C@@H](O)C[C@]3(C)[C@]2(C(=O)CO)O1` (stereo partly shown) [Budesonide, budesonide], the “Size of delivered single particles” value in series [1] was found to be 3.2± 1.3 μm. The Papp at 120 min is 17.9 ± 1.36 ×10⁻⁶ cm/s in series [2] (pH 7.4) and 13.18 ± 0.06 ×10⁻⁶ cm/s in series [2] (setting [8]). The “Ratio Papp (ALE/ SLE)” value in the series on Calu-3 cells [3] came out at 1.36. The “Amount of budesonide in the cells” value in the series on Calu-3 cells [3] (cell lysis after the last sample, total recovered amount 19.3±0.7 μg) amounted to 0.96 µg. Further, the “Change of budesonide transport on co-incubation with formoterol” value with Calu-3 cells [3] (solution, SLE and ALE, mixture 50 μM budesonide and 0.5 mM formoterol fumarate) is on record as “did not show changes”. Besides, the “Transport in the fixed dose combination Symbicort versus applied alone” value in the series on Calu-3 cells [4] (DP-4 Dry Powder Insufflator (AID_D), n = 3) is “no differences”.
In the case of `O=C1OC2(c3ccc(O)cc3Oc3cc(O)ccc32)c2ccccc21` [Fluorescein, Sodium fluorescein], the “Size of delivered single particles” value in series [1] is 1.1±0.3 μm. In the series with Calu-3 cells [5] (SLE, ref [8],[41],[49],[65]–[69]), the “Papp values of fluorescein published by other groups” value was 0.1 x 10–6 cm/s. In addition, the Papp at 120 min, 10 μg/ml came out at 0.23 ± 0.04 ×10⁻⁶ cm/s in series [2] (Air-liquid interface culture, 0.4 μm pores); 0.27 ± 0.08 ×10⁻⁶ cm/s in series [2] (Air-liquid interface culture, 3 μm pores); 0.09 ± 0.04 ×10⁻⁶ cm/s in series [2] (Submersed culture, 3 μm pores). In addition, the Papp at 120 min in series [2] (setting [9]) was determined as 0.27 ± 0.08 ×10⁻⁶ cm/s; in series [2] (setting [8]), 0.09 ± 0.04 ×10⁻⁶ cm/s. The “Ratio Papp (ALE/ SLE)” value in the series with Calu-3 cells [3] came out at 3.00. Besides, in the series with Calu-3 cells [4], the “Dye transport relative to SLE” value was 131.7 times. Moreover, the “Dye transport relative to SLE incubation” value in the series on Calu-3 cells [4] is listed as 4.3 times.
For the compound `COc1ccc(CC(C)NCC(O)c2ccc(O)c(NC=O)c2)cc1` (stereo not shown) [Formoterol, formoterol fumarate dihydrate], the Papp in the series on Calu-3 cells [6] was 1.72±0.24 10^−6 cm/s; in “in vitro”, 2.98 ± 0.79 ×10⁻⁶ cm/s. Moreover, the “Ratio Papp (ALE/ SLE)” value with Calu-3 cells [6] is recorded as 1.73. Besides, the “Transport in the fixed dose combination Symbicort versus applied alone” value with Calu-3 cells [7] is recorded as “significantly higher”.
`COC(=O)c1ccccc1-c1c2ccc(=N)cc-2oc2cc(N)ccc12` [Rhodamine 123, rhodamine 123]: the “Papp values of rhodamine 123 reported” value with Calu-3 cells [5] (ALE) was 2.27 ×10⁻⁶ cm/s; with Calu-3 cells [5] (SLE), 0.49 ×10⁻⁶ cm/s. For the same compound, the Papp at 120 min is 0.27 ± 0.09 ×10⁻⁶ cm/s in series [2] (setting [9]) and 0.07 ± 0.02 ×10⁻⁶ cm/s in series [2] (setting [8]). Moreover, in the series with Calu-3 cells [3], the “Ratio Papp (ALE/ SLE)” value amounted to 3.86. Also, the “Dye transport relative to SLE” value in the series with Calu-3 cells [4] is on record as 48.2 times. Also, in the series on Calu-3 cells [4], the “Dye transport relative to SLE incubation” value came out at 3.2 times.
